Reference: patent publication US7993884B2, “Beta-xylosidase for conversion of plant cell wall carbohydrates to simple sugars” (The United States of America as represented by the …, priority 2006, dated 2011)
Several values for one entry are separate records, joined by “and”; a condition that tells them apart may be missing. Identical values can stand only once. Like-named read-outs stand apart in the source and are kept apart here.

Columns and labels:
[1] = molecular target: T1, SXA (Selenomonas ruminantium, UniProt O52575); assay: SXA-catalyzed hydrolysis of 4NP-glycoside substrates, initial rates (Methods A and B); assay type: biochemical; conditions: for Relative Rate: 5 mM 4NP glycoside, 100 mM succinate-NaOH, pH 5.3, 25° C., Method A, initial rate relative to 4NPX;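 as to all read-outs here: initial rates from 4-nitrophenol release, tracked by absorbance over roughly 0.3 min and converted using product-minus-substrate extinction differences, in 1 mL mixtures started by enzyme addition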
[2] = molecular target: T1, SXA; conditions: for Km: 100 mM succinate-NaOH, pH 5.3, 25° C. (Example 1)
[3] = molecular target: T2, Selenomonas ruminantium GA192 β-D-xylosidase (SXA), wild type, SEQ ID NO: 2 (Pseudoselenomonas ruminantium, UniProt O52575); assay: Steady-state kinetics of SXA with 4NPX2, A2 and X2-X6 by HPLC (Example 1)
[4] = molecular target: T2, Selenomonas ruminantium GA192 β-D-xylosidase (SXA), wild type, SEQ ID NO: 2; assay: Steady-state kinetics of SXA with X2-X6, improved quenching, HPLC (Example 3); conditions: for factor by which kcat is higher than that of the Bacillus pumilus enzyme: SXA pH 5.3 vs B. pumilus pH 7.15, 25° C
[5] = molecular target: T1, SXA; conditions: for Km / kcat: 100 mM succinate-NaOH, improved quench (Example 3); for Km / kcat / kcat lower than previous determination (Example 1) / kcat/Km lower than previous determination (Example 1): pH 5.3, 25° C.; for factor by which kcat of SXA is higher than that of the Bacillus pumilus enzyme: SXA pH 5.3, 25° C. vs B. pumilus pH 7.15, 25° C.
[6] = 100 mM succinate-NaOH, pH 5.3, 25° C
[7] = hydrolysis of X6, pH 5.30, 25° C.
[8] = pH 5.3, 25° C (improved technique), approximate
[9] = pH 5.3, 25° C (Example 1), approximate

## O=[N+]([O-])c1ccc(O[C@H]2O[C@H](CO)[C@@H](O)[C@H](O)[C@H]2O)cc1 [4-Nitrophenyl-α D-glucopyranoside]
[1]
  Relative Rate: <10^−6

## O=[N+]([O-])c1ccc(O[C@H]2O[C@H](CO)[C@H](O)[C@H](O)[C@H]2O)cc1 [4-Nitrophenyl-α-D-galactopyranoside]
[1]
  Relative Rate: <10^−6

## O=[N+]([O-])c1ccc(O[C@H]2O[C@H](CO)[C@@H](O)[C@H](O)[C@@H]2O)cc1 [4-Nitrophenyl-α-D-mannopyranoside]
[1]
  Relative Rate: <10^−6

## O=[N+]([O-])c1ccc(O[C@H]2OC[C@@H](O)[C@H](O)[C@H]2O)cc1 [4-Nitrophenyl-α-D-xylopyranoside]
[1]
  Relative Rate: <10^−6

## O=[N+]([O-])c1ccc(O[C@@H]2OC[C@H](O)[C@H](O)[C@H]2O)cc1 [4-Nitrophenyl-α-L-arabinopyranoside]
[1]
  Relative Rate: <10^−6

## C[C@@H]1O[C@@H](Oc2ccc([N+](=O)[O-])cc2)[C@@H](O)[C@H](O)[C@@H]1O [4-Nitrophenyl-α-L-fucopyranoside]
[1]
  Relative Rate: <10^−6

## C[C@@H]1O[C@@H](Oc2ccc([N+](=O)[O-])cc2)[C@H](O)[C@H](O)[C@H]1O [4-Nitrophenyl-α-L-rhamnopyranoside]
[1]
  Relative Rate: <10^−6

## C[C@H]1O[C@@H](Oc2ccc([N+](=O)[O-])cc2)[C@H](O)[C@@H](O)[C@H]1O [4-Nitrophenyl-β-D-fucopyranoside]
[1]
  Relative Rate: <10^−6

## O=[N+]([O-])c1ccc(O[C@@H]2O[C@H](CO)[C@H](O)[C@H](O)[C@H]2O)cc1 [4-Nitrophenyl-β-D-galactopyranoside]
[1]
  Relative Rate: <10^−6

## O=[N+]([O-])c1ccc(O[C@@H]2O[C@H](CO)[C@@H](O)[C@H](O)[C@H]2O)cc1 [4-Nitrophenyl-β-D-glucopyranoside]
[1]
  Relative Rate: <10^−6

## O=[N+]([O-])c1ccc(O[C@@H]2O[C@H](CO)[C@@H](O)[C@H](O)[C@@H]2O)cc1 [4-Nitrophenyl-β-D-mannopyranoside]
[1]
  Relative Rate: <10^−6

## O=[N+]([O-])c1ccc(O[C@H]2OC[C@H](O)[C@H](O)[C@H]2O)cc1 [4-Nitrophenyl-β-L-arabinopyranoside]
[1]
  Relative Rate: <10^−6
[1]; reaction conditions of Table 2, later attributed to a contaminant
  rate relative to that of 4NPX, first inspection: less than 0.1%

## C[C@@H]1O[C@H](Oc2ccc([N+](=O)[O-])cc2)[C@@H](O)[C@H](O)[C@@H]1O [4-Nitrophenyl-β-fucopyranoside]
[1]
  Relative Rate: <10^−6

## OC[C@@H]1O[C@@H](OC[C@@H]2OC(O)[C@H](O)[C@H]2O)[C@H](O)[C@H]1O (stereo partly drawn) [A2, 1,5-α-L-arabinobiose]
[2]
  Km: 1200 ± 100 µM
[2]; pH 5.3, 25° C.
  factor by which kcat is reduced in comparison to 4NPA: 36
  factor by which kcat is reduced in comparison to X2: 5600
[2]; pH 5.3 and 25° C., relative to A2
  relative kcat values: 1
[3]
  factor by which kcat is reduced vs X2: 5600 fold
[3]; [6]
  kcat: 0.074 ± 0.003 s⁻¹
[3]; 4NPA larger / A2 reduced
  kcat factor between 4NPA and A2: 36 fold
[3]; pH 5.3, 25° C, A2 = 1
  relative kcat value: 1

## OC1OC[C@@H](O[C@@H]2OC[C@@H](O[C@@H]3OC[C@@H](O)[C@H](O)[C@H]3O)[C@H](O)[C@H]2O)[C@H](O)[C@H]1O (stereo partly drawn) [X3, 1,4-β-D-xylotriose]
[2]
  Km: 3800 µM
[2]; hydrolysis of X4, pH 5.30, 25° C.
  time of peak height of intermediate product, observed: 4130 s
[2]; [7]
  time of peak height of intermediate product, observed: 10822 s
[4]; [6]
  kcat: 95.1 ± 1.5 s⁻¹
[4]
  factor by which kcat is higher than that of the Bacillus pumilus enzyme: 32
[4]; from pH dependence of 1/Km
  affinity of dianionic SXA (D14^−E186^−), lower than that of monoanionic SXA (D14^−E186^H): 3.1 fold and 3 fold
[4]; [8]
  kcat: approximately 95.1 sec^−1
[4]; pH profile, I=0.3 M, 25° C
  pH-independent kcat: 98.0±2.3
[3]; [6]
  kcat: 172 s⁻¹ and 172 ± 14 s⁻¹
[5]
  pH-independent kcat: 98.0±2.3
  Km: 2120 ± 100 µM
  kcat: approximately 95.1 s^−1
  factor by which kcat of SXA is higher than that of the Bacillus pumilus enzyme: 32
  kcat lower than previous determination (Example 1): 45%
  kcat/Km lower than previous determination (Example 1): 1%
[5]; Eq. 6, I=0.3 M, 25° C.
  pKa1 of kcat versus pH: 3.21
  pKa1 of kcat/Km versus pH: 4.80±0.06
  pKa2 of kcat versus pH: 7.53±0.06
  pKa2 of kcat/Km versus pH: 7.30±0.04
[5]; Eq. 6, I=0.3 M, 25° C., listed as 1,4-β-D-xylotriose
  pKa1 of kcat versus pH: 3.21±0.27
[5]; Eq. 7, I=0.3 M, 25° C.
  pKa1 of 1/Km versus pH: 4.76±0.05
  pKa2 of 1/Km versus pH: 7.76±0.14
[5]; from pH dependencies of 1/Km
  lower affinity of dianionic SXA (D14^−E186^−) than monoanionic SXA (D14^−E186^H): 3.1 fold and 3 fold
[5]; kcat/Km versus pH, Eq. 6, I=0.3 M, 25° C. (FIG. 20)
  pH-independent kcat/Km: 58.9±3.3 mM^−1s^−1

## OC1OC[C@@H](O[C@@H]2OC[C@@H](O[C@@H]3OC[C@@H](O[C@@H]4OC[C@@H](O)[C@H](O)[C@H]4O)[C@H](O)[C@H]3O)[C@H](O)[C@H]2O)[C@H](O)[C@H]1O (stereo partly drawn) [X4, 1,4-β-D-xylotetraose]
[2]
  Km: 4000 µM
[2]; [7]
  time of peak height of intermediate product, observed: 8260 s
[4]; [6]
  kcat: 91.6 ± 2.3 s⁻¹
[4]
  factor by which kcat is higher than that of the Bacillus pumilus enzyme: 31
[4]; [8]
  kcat: approximately 91.6 sec^−1
[3]; [6]
  kcat: 150 s⁻¹ and 150 ± 5 s⁻¹
[3]; [9]
  kcat: approximately 150 sec^−1
[5]
  Km: 2750 ± 230 µM
  kcat: approximately 91.6 s^−1
  factor by which kcat of SXA is higher than that of the Bacillus pumilus enzyme: 31
  kcat lower than previous determination (Example 1): 39%
  kcat/Km lower than previous determination (Example 1): 12%

## OC1OC[C@@H](O[C@@H]2OC[C@@H](O[C@@H]3OC[C@@H](O[C@@H]4OC[C@@H](O[C@@H]5OC[C@@H](O)[C@H](O)[C@H]5O)[C@H](O)[C@H]4O)[C@H](O)[C@H]3O)[C@H](O)[C@H]2O)[C@H](O)[C@H]1O (stereo partly drawn) [X5, 1,4-β-D-xylopentaose]
[2]
  Km: 3700 µM
[2]; [7]
  time of peak height of intermediate product, observed: 3138 s
[4]; [6]
  kcat: 77.2 ± 3.6 s⁻¹
[4]
  factor by which kcat is higher than that of the Bacillus pumilus enzyme: 20
[4]; [8]
  kcat: approximately 77.2 sec^−1
[3]; [6]
  kcat: 150 s⁻¹ and 150 ± 15 s⁻¹
[3]; [9]
  kcat: approximately 150 sec^−1
[5]
  Km: 2860 ± 380 µM
  kcat: approximately 77.2 s^−1
  factor by which kcat of SXA is higher than that of the Bacillus pumilus enzyme: 20
  kcat lower than previous determination (Example 1): 49%
  kcat/Km lower than previous determination (Example 1): 34%

## OC1OC[C@@H](O[C@@H]2OC[C@@H](O[C@@H]3OC[C@@H](O[C@@H]4OC[C@@H](O[C@@H]5OC[C@@H](O[C@@H]6OC[C@@H](O)[C@H](O)[C@H]6O)[C@H](O)[C@H]5O)[C@H](O)[C@H]4O)[C@H](O)[C@H]3O)[C@H](O)[C@H]2O)[C@H](O)[C@H]1O (stereo partly drawn) [X6, 1,4-β-D-xylohexaose]
[2]
  Km: 2700 µM
[4]; [6]
  kcat: 81.5 ± 2.0 s⁻¹
[4]
  factor by which kcat is higher than that of the Bacillus pumilus enzyme: 27
[4]; [8]
  kcat: approximately 81.5 sec^−1
[3]; [6]
  kcat: 96 s⁻¹ and 96 ± 7 s⁻¹
[5]
  Km: 3120 ± 210 µM
  kcat: approximately 81.5 s^−1
  factor by which kcat of SXA is higher than that of the Bacillus pumilus enzyme: 27
  kcat lower than previous determination (Example 1): 15%
  kcat/Km lower than previous determination (Example 1): 25%
